The source of these data is ChEMBL document CHEMBL4052650, “Halogen-substituted catechol bisphosphates are potent and selective inhibitors of the transcription factor STAT5b” (Bioorg Med Chem, 2017).

The species entered for one assay is Homo sapiens. Description: Selectivity factor, ratio of IC50 for displacement of 5-carboxyfluorescein-GY(PO3H2)LVLDKW from STAT5A SH2 domain (unknown origin) to IC50 for displacement of 5-carboxyfluorescein-GY(PO3H2)LVLDKW from STAT5B SH2 domain (unknown origin).
Assay [1] concerns the target T1, Signal transducer and activator of transcription 5B (Homo sapiens, UniProt P51692).
T1 sequence (P51692 whole entry): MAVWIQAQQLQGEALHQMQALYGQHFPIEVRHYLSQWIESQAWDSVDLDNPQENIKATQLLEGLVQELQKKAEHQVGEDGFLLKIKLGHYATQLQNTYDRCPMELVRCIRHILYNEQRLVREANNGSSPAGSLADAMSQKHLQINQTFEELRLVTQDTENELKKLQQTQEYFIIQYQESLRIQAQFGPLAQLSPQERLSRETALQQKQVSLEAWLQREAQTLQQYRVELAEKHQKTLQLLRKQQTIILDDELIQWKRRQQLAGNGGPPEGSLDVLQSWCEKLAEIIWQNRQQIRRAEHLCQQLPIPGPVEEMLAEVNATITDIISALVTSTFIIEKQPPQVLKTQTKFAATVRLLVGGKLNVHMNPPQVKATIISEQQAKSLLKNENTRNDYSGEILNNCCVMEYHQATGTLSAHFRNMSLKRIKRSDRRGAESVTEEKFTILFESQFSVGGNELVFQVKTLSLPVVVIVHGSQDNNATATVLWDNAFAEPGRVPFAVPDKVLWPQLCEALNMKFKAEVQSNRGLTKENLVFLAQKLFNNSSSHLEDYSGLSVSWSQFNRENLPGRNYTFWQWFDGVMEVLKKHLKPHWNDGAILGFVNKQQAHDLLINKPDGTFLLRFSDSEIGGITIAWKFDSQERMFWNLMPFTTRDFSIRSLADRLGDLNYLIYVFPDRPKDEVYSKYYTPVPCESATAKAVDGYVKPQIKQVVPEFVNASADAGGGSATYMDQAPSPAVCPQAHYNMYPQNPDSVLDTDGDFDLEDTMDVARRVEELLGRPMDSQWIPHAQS
The assay is described as follows: Displacement of 5-carboxyfluorescein-GY(PO3H2)LVLDKW from STAT5B SH2 domain (unknown origin) pretreated for 1 hr followed by fluorescent tracer addition after 1 hr by fluorescence polarization assay. (In general: Polarisation of emitted light reports the rotation of a fluorescent probe.)

Assay [2] has as its target T2, Signal transducer and activator of transcription 5A (Homo sapiens, UniProt P42229).
T2 sequence (P42229 whole entry): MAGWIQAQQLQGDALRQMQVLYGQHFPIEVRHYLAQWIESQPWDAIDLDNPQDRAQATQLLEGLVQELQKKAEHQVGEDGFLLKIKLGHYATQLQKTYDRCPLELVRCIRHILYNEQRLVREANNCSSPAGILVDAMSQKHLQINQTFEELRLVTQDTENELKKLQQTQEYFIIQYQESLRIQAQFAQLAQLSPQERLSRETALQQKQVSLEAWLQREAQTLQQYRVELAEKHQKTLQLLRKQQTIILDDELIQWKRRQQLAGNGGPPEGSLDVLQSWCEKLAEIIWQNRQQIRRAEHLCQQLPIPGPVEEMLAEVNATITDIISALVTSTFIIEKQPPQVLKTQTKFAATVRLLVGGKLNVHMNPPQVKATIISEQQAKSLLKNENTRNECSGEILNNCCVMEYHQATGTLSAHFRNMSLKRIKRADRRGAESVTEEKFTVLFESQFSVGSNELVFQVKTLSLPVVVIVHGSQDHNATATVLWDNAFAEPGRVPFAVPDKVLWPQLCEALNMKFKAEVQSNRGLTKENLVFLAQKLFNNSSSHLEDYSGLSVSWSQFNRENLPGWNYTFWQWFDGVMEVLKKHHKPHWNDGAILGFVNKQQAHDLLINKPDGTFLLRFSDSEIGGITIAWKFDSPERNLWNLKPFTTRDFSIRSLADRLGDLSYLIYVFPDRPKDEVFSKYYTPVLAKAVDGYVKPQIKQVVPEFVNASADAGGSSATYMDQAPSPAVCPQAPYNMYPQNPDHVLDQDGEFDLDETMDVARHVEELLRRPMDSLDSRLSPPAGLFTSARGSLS
Description: Displacement of 5-carboxyfluorescein-GY(PO3H2)LVLDKW from STAT5A SH2 domain (unknown origin) pretreated for 1 hr followed by fluorescent tracer addition after 1 hr by fluorescence polarization assay.

Structures are written as SMILES.

The IC50 is the concentration that inhibits the measured activity by half. `O=C(COc1ccc(C(=O)Nc2ccc(F)cc2)cc1)NCc1ccc(OP(=O)(O)O)c(OP(=O)(O)O)c1`: the Ratio IC50 in the assay listed under Homo sapiens was found to be 24. For the same molecule, the IC50 in assay [1] was 0.35 µM; in assay [2], 8.3 µM.

`O=C(COc1ccc(C(=O)Nc2ccccc2)cc1)NCc1ccc(OP(=O)(O)O)c(OP(=O)(O)O)c1`: the Ratio IC50 in the assay listed under Homo sapiens was determined as 35. For the same molecule, the IC50 in assay [1] amounted to 0.28 µM; in assay [2], 9.7 µM.

`O=C(COc1ccc(C(=O)Nc2ccc(Br)cc2)cc1)NCc1ccc(OP(=O)(O)O)c(OP(=O)(O)O)c1`: the Ratio IC50 in the assay filed under Homo sapiens was found to be 22. For the same molecule, the values for the half-inhibitory concentration (IC50) in assay [1] and in assay [2] were 0.39 µM and 8.6 µM, respectively.

Consider `O=C(COc1ccc(C(=O)Nc2cccc(F)c2)cc1)NCc1ccc(OP(=O)(O)O)c(OP(=O)(O)O)c1`, for which the Ratio IC50 in the assay filed under Homo sapiens came to 19. Moreover, the IC50 is 0.62 µM in assay [1] and 11.9 µM in assay [2].

For the molecule `O=C(COc1ccc(C(=O)Nc2ccc(Cl)cc2)cc1)NCc1ccc(OP(=O)(O)O)c(OP(=O)(O)O)c1`, in the assay listed under Homo sapiens, the Ratio IC50 turned out to be 22. Besides, the IC50 was determined as 0.33 µM in assay [1] and 7.4 µM in assay [2].

Regarding `O=C(COc1ccc2cc(C(=O)Nc3cccc(F)c3)ccc2c1)NCc1ccc(OP(=O)(O)O)c(OP(=O)(O)O)c1`, the Ratio IC50 in the assay listed under Homo sapiens worked out at 36. Also, the IC50 in assay [1] is 0.234 µM; in assay [2], 8.4 µM.

Take `O=C(COc1ccc(C(=O)Nc2cccc(Cl)c2)cc1)NCc1ccc(OP(=O)(O)O)c(OP(=O)(O)O)c1`: the Ratio IC50 in the assay filed under Homo sapiens stood at 20. For the same molecule, the IC50 worked out at 0.46 µM in assay [1] and 9.1 µM in assay [2].

Consider `O=C(COc1ccc2cc(C(=O)Nc3cccc(Cl)c3)ccc2c1)NCc1ccc(OP(=O)(O)O)c(OP(=O)(O)O)c1`, for which the Ratio IC50 in the assay filed under Homo sapiens came to 28. The IC50 worked out at 0.26 µM in assay [1] and 7.3 µM in assay [2].

With `O=C(COc1ccc2cc(C(=O)Nc3ccc(Cl)cc3)ccc2c1)NCc1ccc(OP(=O)(O)O)c(OP(=O)(O)O)c1`, the Ratio IC50 in the assay listed under Homo sapiens was 33. Moreover, the IC50 is 0.27 µM in assay [1] and 8.9 µM in assay [2].

As for `O=C(COc1ccc2cc(C(=O)Nc3cccc(Br)c3)ccc2c1)NCc1ccc(OP(=O)(O)O)c(OP(=O)(O)O)c1`, the Ratio IC50 in the assay filed under Homo sapiens worked out at 37. Also, the IC50 came to 0.29 µM in assay [1] and 10.6 µM in assay [2].

In the case of `O=C(COc1ccc2cc(C(=O)Nc3ccc(Br)cc3)ccc2c1)NCc1ccc(OP(=O)(O)O)c(OP(=O)(O)O)c1`, in the assay listed under Homo sapiens, the Ratio IC50 worked out at 32. Further, the IC50 in assay [1] was 0.24 µM; in assay [2] it was 7.6 µM.

Take `O=C(COc1ccc(C(=O)Nc2cccc(Br)c2)cc1)NCc1ccc(OP(=O)(O)O)c(OP(=O)(O)O)c1`: the Ratio IC50 in the assay filed under Homo sapiens stood at 16. The IC50 in assay [1] was 0.66 µM; in assay [2], 10.5 µM.

For the molecule `O=C(COc1ccc2cc(C(=O)Nc3ccc(F)cc3)ccc2c1)NCc1ccc(OP(=O)(O)O)c(OP(=O)(O)O)c1`, the Ratio IC50 in the assay filed under Homo sapiens amounted to 33. Moreover, the IC50 is 0.22 µM in assay [1] and 7.2 µM in assay [2].
